According to PMC4741889, “Ligand-based chemoinformatic discovery of a novel small molecule inhibitor targeting CDC25 dual specificity phosphatases and displaying in vitro efficacy against melanoma cells” (Oncotarget, 2015):

Key:
Format in all cases: cell-based, human
A2058 cells = assay: MTT cell growth rate, A2058 melanoma cells; conditions: for cell growth rate: A2058, 100 μM
Procedure: The human melanoma cell line A2058, kindly provided by CEINGE (Naples, Italy), and SAN cells were derived from lymph nodal metastases and grown in DMEM and RPMI 1640, respectively, supplemented with 10% FBS, 2 mM L-glutamine, 100 IU/mL penicillin G, and 100 μg/mL streptomycin in humidified incubator at 37°C under 5% CO2 atmosphere. All cells were split and seeded every three days and used during the exponential phase of growth. Cell treatments were always carried after 24 h from plating.
The MTT assay was used to detect cell proliferation essentially as previously described. Briefly, A2058 and SAN cells were plated in 96-well microtiter plates (100 μL/well) at 4000 and 6000 cells/well, respectively. After 24-h seeding, cells were treated with the selected compounds added at 25, 50 or 100 μM concentration, or with 0.5% (v/v) DMSO as a vehicle control. After 24-h, 48-h or 72-h treatment, and upon the addition of 10 μL of MTT solution in the dark, the plate was incubated for 3 h at 37°C under CO2 atmosphere. After medium aspiration and solubilization of formazan crystals, absorbance was measured at 570 nm, using an ELISA plate reader (Bio-Rad, Milano, Italy).

p53 protein levels = assay: Western blotting of p53 protein levels in A2058 cells; conditions: A2058, 100 μM, 8 h; significant after 16 h
Procedure: (§1) The molecular mechanisms that regulate the cytotoxic potential of 7 in melanoma cells were further investigated through the evaluation of the activation state of protein kinase B (pAkt), one of the key proteins involved in the control and regulation of cell survival. To this aim, the protein levels of pAkt have been analyzed after 2- and 4-h incubation of A2058 cells with 7. […] It is known that Akt regulates the process of cell survival by phosphorylating different substrates, directly or indirectly involved in the apoptotic program. One of these targets is p53, a protein with a tumor-suppressor activity that regulates the cell cycle, as well as the expression of several genes involved in the apoptosis. […]
(§2) A2058 cells were seeded into 6-well-plates (3 × 10^5 cells/plate) for 24 h at 37°C and then treated at different times with 100 μM compound 7 or 0.5% DMSO. […] The protein concentration was determined by the method of Bradford, using bovine serum albumin (BSA) as standard. […] Membranes were then analysed by an enhanced chemiluminescence reaction, using Super Signal West Pico kit (Pierce) according to manufacturer's instruction; signals were visualized by autoradiography.

SAN cells = assay: Intracellular ROS level (DCFH-DA), SAN cells; conditions: SAN, then 100 μM 7 for 4 h
Procedure: The high redox reactivity of quinonoid molecules, like compound 7, could greatly perturb the intracellular redox state. […] The oxidant effect of 7 was also evaluated after cell pre-treatment with two antioxidant molecules, such as N-acetyl-cysteine (NAC) and the specific inhibitor of NADPH oxidase, apocynin. To this aim, A2058 and SAN cells were pre-incubated for 1 h with 10 mM NAC or 45 min with 0.5 mM apocynin and then treated for 4 h with 100 μM compound 7. […] The cytotoxic activity of 7 could be mediated by the observed increase of ROS level.
The intracellular ROS level was monitored using the oxidation-sensitive fluorescence probe DCFH-DA. Cells were seeded into 6-well-plates (3 × 10^5 cells/plate) for 24 h at 37°C and then treated at various times with 100 μM compound 7 or 0.5% DMSO. DCFH-DA was added in the dark at 10 μM final concentration 30-min before the end of each incubation; then, cells were collected, washed in PBS, and finally resuspended in 500 μL PBS for fluorimetric analysis. Measurements were realized in a Cary Eclipse fluorescence spectrophotometer (Varian); excitation and emission wavelengths were set at 485 nm and 530 nm, respectively; both excitation and emission slits were set at 10 nm. The effect of 7 on ROS production was also estimated after pretreatment of cells with 10 mM NAC for 1 h.
Supplementary Figure S5: ROS production and their involvement in the apoptotic process of SAN cells, as induced by treatment with compound 7. A. Time-dependent measurement of ROS production. Cells were incubated with 0.5% DMSO (open bars) or 100 μM compound 7 (black bars) and then the intracellular ROS level was measured. B. Effect of antioxidant molecules on ROS production. The ROS level was also measured in cells untreated or pretreated with NAC or apocynin after a 4-h incubation with DMSO or 7. C. Effect of NAC on apoptosis. The PI incorporation was evaluated in cells untreated or pretreated with NAC after a 48-h incubation with DMSO or 7. ROS production was expressed as a.u., and apoptosis as a percentage. […]

pAkt protein levels = assay: Western blotting of pAkt (Ser473) in A2058 cells; conditions: A2058, 100 μM, 2 and 4 h
Procedure: as §1, §2

## O=C(O)C1CCCCC1c1c2ccc(=O)cc-2oc2cc(O)ccc12 (stereo not shown) [Compound 7, 2-(6-hydroxy-3-oxo-3H-xanthen-9-yl)cyclohexanecarboxylic acid]
A2058 cells; 48 h, MTT
  cell growth rate: significant reduction of the cell growth rate
A2058 cells; 72 h, MTT (data not shown)
  cell growth rate: significant reduction of cell growth rate
A2058 cells; A2058, 25, 50 or 100 μM tested, 48 h (Supplementary Figure S2)
  minimum concentration of inhibitor that caused an evident cytotoxic activity: 100 µM
p53 protein levels
  p53 protein level: higher level of p53 compared to control
SAN cells; 0.5 mM apocynin 45 min
  increase of ROS level after apocynin pre-treatment: did not prevent the increase of ROS level
SAN cells; 10 mM NAC 1 h
  increase of ROS level after NAC pre-treatment: prevented by the NAC treatment
pAkt protein levels
  protein level of pAkt with respect to total Akt: early reduction of the protein level of pAkt
